Here are results for 23 molecules from patent US20230144824A1, “1H-PYRAZOLO[4,3-d]PYRIMIDINE COMPOUNDS AS TOLL-LIKE RECEPTOR 7 (TLR7) AGONISTS” (BRISTOL-MYERS SQUIBB COMPANY, priority 2020, published 2023).

The target in the assay is T1, human TLR7 (Homo sapiens, UniProt Q9NYK1).
T1 construct: host or cells: HEK-Blue TLR7 cells (engineered human embryonic kidney cells)
T1 sequence (Q9NYK1 27-1049): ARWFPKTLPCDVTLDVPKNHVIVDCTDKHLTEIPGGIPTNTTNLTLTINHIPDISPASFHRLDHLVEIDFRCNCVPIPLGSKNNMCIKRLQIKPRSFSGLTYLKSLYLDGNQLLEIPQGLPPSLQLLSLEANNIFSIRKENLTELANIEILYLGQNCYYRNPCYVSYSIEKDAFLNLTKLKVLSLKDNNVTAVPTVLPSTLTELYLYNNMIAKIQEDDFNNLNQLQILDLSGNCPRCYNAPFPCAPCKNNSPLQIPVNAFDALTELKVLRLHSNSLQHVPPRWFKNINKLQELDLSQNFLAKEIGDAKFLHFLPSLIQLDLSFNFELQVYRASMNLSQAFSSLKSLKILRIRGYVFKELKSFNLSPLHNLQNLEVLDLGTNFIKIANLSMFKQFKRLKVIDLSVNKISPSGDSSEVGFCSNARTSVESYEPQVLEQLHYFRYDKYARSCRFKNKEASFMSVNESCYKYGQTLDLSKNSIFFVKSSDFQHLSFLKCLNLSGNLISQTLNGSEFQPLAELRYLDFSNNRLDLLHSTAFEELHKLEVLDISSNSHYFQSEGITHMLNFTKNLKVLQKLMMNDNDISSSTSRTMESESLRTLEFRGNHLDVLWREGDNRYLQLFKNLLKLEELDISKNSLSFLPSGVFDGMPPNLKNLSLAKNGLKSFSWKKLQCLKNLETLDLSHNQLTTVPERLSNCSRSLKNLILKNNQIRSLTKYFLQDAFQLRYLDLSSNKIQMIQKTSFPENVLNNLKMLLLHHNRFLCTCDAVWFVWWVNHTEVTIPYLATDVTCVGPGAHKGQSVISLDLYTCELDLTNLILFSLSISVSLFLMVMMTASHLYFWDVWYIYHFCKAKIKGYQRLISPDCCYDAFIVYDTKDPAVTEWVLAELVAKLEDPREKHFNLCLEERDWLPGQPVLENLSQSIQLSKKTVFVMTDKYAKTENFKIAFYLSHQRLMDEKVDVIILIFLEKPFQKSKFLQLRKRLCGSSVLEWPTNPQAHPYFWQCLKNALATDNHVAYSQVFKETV
Nature of the assay: Human TLR7 agonist activity assay (HEK-Blue TLR7 SEAP reporter). Type of assay: cell-based. The following applies: HEK-Blue TLR7 cells, 18 h treatment, average where assay performed multiple times, read-out: hTLR7 Agonism EC50. The procedure: This procedure describes a method for assaying human TLR7 (hTLR7) agonist activity of the compounds disclosed in this specification.
HEK-Blue™ TLR7 cells were added to each well of a 384-well tissue-culture plate (15,000 cells per well) and incubated 16-18 h at 37° C., 5% CO2. Compounds (100 nl) were dispensed into wells containing the HEK-Blue™ TLR cells and the treated cells were incubated at 37° C., 5% CO2. After 18 h treatment ten microliters of freshly-prepared Quanti-Blue™ reagent (Invivogen) was added to each well, incubated for 30 min (37° C., 5% CO2) and SEAP levels measured using an Envision plate reader (OD=620 nm). The half maximal effective concentration values (EC50; compound concentration which induced a response halfway between the assay baseline and maximum) were calculated.

Usually EC50 stands for the concentration at which the effect is half-maximal. For `CCC[C@@H](CCO)Nc1nc(N)nc2cnn(Cc3ccc(C4CN(C5CCOCC5)CCN4)cc3OC)c12` (stereo partly drawn) [Compound 203, (3S)-3-{[5-amino-1-({2-methoxy-4-[4-(oxan-4-yl)piperazin-2-yl]phenyl}methyl)-1H-pyrazolo[4,3-d]pyrimidin-7-yl]amino}hexan-1-ol], the EC50 is 35 nM.

On to `CCC[C@@H](CCO)Nc1nc(N)nc2cnn(Cc3ncc(C4CCN(CCS(C)(=O)=O)CC4)cc3OC)c12` [Compound 206, (3S)-3-{[5-amino-1-({5-[1-(2-methanesulfonylethyl)piperidin-4-yl]-3-methoxypyridin-2-yl}methyl)-1H-pyrazolo[4,3-d]pyrimidin-7-yl]amino}hexan-1-ol], for which the EC50 came out at 74.9 nM.

For `CCC[C@@H](CCO)Nc1nc(N)nc2cnn(Cc3ncc(C4CCN(Cc5ncn(C)n5)CC4)cc3OC)c12` [Compound 204, (3S)-3-({5-amino-1-[(3-methoxy-5-{1-[(1-methyl-1H-1,2,4-triazol-3-yl)methyl]piperidin-4-yl}pyridin-2-yl)methyl]-1H-pyrazolo[4,3-d]pyrimidin-7-yl}amino)hexan-1-ol], the EC50 was determined as 91.1 nM. As for `CCC[C@@H](CCO)Nc1nc(N)nc2cnn(Cc3ccc(C4CCN(C5CCOCC5)CC4)nc3)c12` [Compound 216, (3S)-3-{[5-amino-1-({6-[1-(oxan-4-yl)piperidin-4-yl]pyridin-3-yl}methyl)-1H-pyrazolo[4,3-d]pyrimidin-7-yl]amino}hexan-1-ol], the concentration for a half-maximal effect (EC50) is 1540 nM.

On to `COc1cc(C2CCN(C(=O)CCN(C)C)CC2)cnc1Cn1ncc2nc(N)nc(NCC3CC4(CC4)C3)c21` [Compound 155, 1-{4-[6-({5-amino-7-[({spiro[2.3]hexan-5-yl}methyl)amino]-1H-pyrazolo[4,3-d]pyrimidin-1-yl}methyl)-5-methoxypyridin-3-yl]piperidin-1-yl}-3-(dimethylamino)propan-1-one], for which the concentration for a half-maximal effect (EC50) was determined as 199 nM. Regarding `CCC[C@@H](CCO)Nc1nc(N)nc2cnn(Cc3ncc(C4CCN(C5CCNCC5)CC4)cc3OC)c12` [Compound 214, (3S)-3-([5-amino-1-[(5-{[1,4′-bipiperidine]-4-yl}-3-methoxypyridin-2-yl)methyl]-1H-pyrazolo[4,3-d]pyrimidin-7-yl}amino)hexan-1-ol], the half-maximal effective concentration (EC50) stood at 315 nM. As to `COc1cc(C2CCN(CCN(C)C)CC2)cnc1Cn1ncc2nc(N)nc(NCc3cc(C)on3)c21` [Compound 145, 1-[(5-{1-[2-(dimethylamino)ethyl]piperidin-4-yl}-3-methoxypyridin-2-yl)methyl]-N7-[(5-methyl-1,2-oxazol-3-yl)methyl]-1H-pyrazolo[4,3-d]pyrimidine-5,7-diamine], the EC50 came to 101 nM. Consider `CCCCNc1nc(N)nc2cnn(Cc3cnc(C4CCN(C5CCOCC5)CC4)cc3OC)c12` [Compound 219, N7-butyl-1-({4-methoxy-6-[1-(oxan-4-yl)piperidin-4-yl]pyridin-3-yl}methyl)-1H-pyrazolo[4,3-d]pyrimidine-5,7-diamine], for which the EC50 amounted to 21.9 nM. The result for `COc1cc(C2CCNCC2)cnc1Cn1ncc2nc(N)nc(NCC3CC4(CC4)C3)c21` [Compound 152, 1-{[3-methoxy-5-(piperidin-4-yl)pyridin-2-yl]methyl}-N7-({spiro[2.3]hexan-5-yl}methyl)-1H-pyrazolo[4,3-d]pyrimidine-5,7-diamine] reads 111 nM. Take `CCC[C@@H](CCO)Nc1nc(N)nc2cnn(Cc3ncc(C4CCN(C(=O)CN5CCOCC5)CC4)cc3OC)c12` [Compound 208, 1-(4-{6-[(5-amino-7-{[(3S)-1-hydroxyhexan-3-yl]amino}-1H-pyrazolo[4,3-d]pyrimidin-1-yl)methyl]-5-methoxypyridin-3-yl}piperidin-1-yl)-2-(morpholin-4-yl)ethan-1-one]: the EC50 was 168 nM. The result for `CCC[C@@H](CCO)Nc1nc(N)nc2c(C)nn(Cc3cnc(C4CCNCC4)cc3OC)c12` [Compound 221, (3S)-3-[(5-amino-1-{[4-methoxy-6-(piperidin-4-yl)pyridin-3-yl]methyl}-3-methyl-1H-pyrazolo[4,3-d]pyrimidin-7-yl)amino]hexan-1-ol] reads 57.1 nM; that for `CCC[C@@H](CCO)Nc1nc(N)nc2c(C)nn(Cc3ncc(C4CCN(C5CCOCC5)CC4)cc3OC)c12` [Compound 215, (3S)-3-{[5-amino-1-({3-methoxy-5-[1-(oxan-4-yl)piperidin-4-yl]pyridin-2-yl}methyl)-3-methyl-1H-pyrazolo[4,3-d]pyrimidin-7-yl]amino}hexan-1-ol], 29.8 nM.

Take `CCCCNc1nc(N)nc2cnn(Cc3ncc(C4CCN(Cc5ncn(C)n5)CC4)cc3OC)c12` [Compound 217, N7-butyl-1-[(3-methoxy-5-{1-[(1-methyl-1H-1,2,4-triazol-3-yl)methyl]piperidin-4-yl}pyridin-2-yl)methyl]-1H-pyrazolo[4,3-d]pyrimidine-5,7-diamine]: the EC50 stood at 80.1 nM. On to `CCC[C@@H](CCO)Nc1nc(N)nc2cnn(Cc3ncc(C4CCN(C5CCOC5)CC4)cc3OC)c12` (stereo partly drawn) [Compound 210, (3S)-3-{[5-amino-1-({3-methoxy-5-[1-(oxolan-3-yl)piperidin-4-yl]pyridin-2-yl}methyl)-1H-pyrazolo[4,3-d]pyrimidin-7-yl]amino}hexan-1-ol], for which the concentration giving a half-maximal response (EC50) worked out at 9.05 nM. Take `COc1cc(C2CCN(CCO)CC2)cnc1Cn1ncc2nc(N)nc(NCC3CC4(CC4)C3)c21` [Compound 153, 2-{4-[6-({5-amino-7-[({spiro[2.3]hexan-5-yl}methyl)amino]-1H-pyrazolo[4,3-d]pyrimidin-1-yl}methyl)-5-methoxypyridin-3-yl]piperidin-1-yl}ethan-1-ol]: the EC50 worked out at 86.8 nM.

For `COc1cc(C2CCN(C3CCOCC3)CC2)cnc1Cn1ncc2nc(N)nc(NCc3noc(C)n3)c21` [Compound 200, 1-({3-methoxy-5-[1-(oxan-4-yl)piperidin-4-yl]pyridin-2-yl}methyl)-N7-[(5-methyl-1,2,4-oxadiazol-3-yl)methyl]-1H-pyrazolo[4,3-d]pyrimidine-5,7-diamine], the EC50 is 117 nM. Take `CCCCNc1nc(N)nc2cnn(Cc3ncc(C4CCN(C(CC)CC)CC4)cc3OC)c12` [Compound 130, N7-butyl-1-({3-methoxy-5-[1-(pentan-3-yl)piperidin-4-yl]pyridin-2-yl}methyl)-1H-pyrazolo[4,3-d]pyrimidine-5,7-diamine]: the EC50 worked out at 119 nM. The result for `COc1cc(C2CCN(C(C)C)CC2)cnc1Cn1ncc2nc(N)nc(NCC3CC4(CC4)C3)c21` [Compound 156, 1-({3-methoxy-5-[1-(propan-2-yl)piperidin-4-yl]pyridin-2-yl}methyl)-N7-({spiro[2.3]hexan-5-yl}methyl)-1H-pyrazolo[4,3-d]pyrimidine-5,7-diamine] reads 40.9 nM; that for `CCC[C@@H](CCO)Nc1nc(N)nc2cnn(Cc3ncc(C4CCN(C5CCOC5)CC4)cc3OC)c12` (single isomer, unassigned) [Compound 211], 123 nM; that for `CCC[C@@H](CCO)Nc1nc(N)nc2cnn(Cc3ncc(C4CCN(C5CCOC5)CC4)cc3OC)c12` (single isomer, unassigned) [Compound 212], 6.5 nM. As to `CCC[C@@H](CCO)Nc1nc(N)nc2cnn(Cc3ncc(C4CCCNC4)cc3OC)c12` (single isomer, unassigned) [Compound 201], the EC50 came out at 256 nM. As to `CCCCNc1nc(N)nc2cnn(Cc3ccc(C4CCN(C(=O)CC(C)(C)O)CC4)cc3OC)c12` [Compound 162, 1-[4-(4-{[5-amino-7-(butylamino)-1H-pyrazolo[4,3-d]pyrimidin-1-yl]methyl}-3-methoxyphenyl)piperidin-1-yl]-3-hydroxy-3-methylbutan-1-one], the EC50 turned out to be 12.2 nM. In the case of `CCC[C@@H](CCO)Nc1nc(N)nc2cnn(Cc3ncc(C4CCN(C5CCN(C)CC5)CC4)cc3OC)c12` [Compound 213, (3S)-3-({5-amino-1-[(3-methoxy-5-{1′-methyl-[1,4′-bipiperidine]-4-yl}pyridin-2-yl)methyl]-1H-pyrazolo[4,3-d]pyrimidin-7-yl}amino)hexan-1-ol], the half-maximal effective concentration (EC50) was found to be 56.6 nM.
